Here are results for eight compounds from EP0038569A2, “Deazapurine nucleosides, formulations and preparation thereof” (THE WELLCOME FOUNDATION LIMITED, priority 1980, dated 1981).

Usually ED50 stands for the dose that gives a 50% effect, or the effect in half of the subjects. The term IC50 denotes the concentration needed to halve the response being measured. Read a high IC50 as weaker potency.

Series [1] can be described thus: Carrageenan Pleurisy Assay (CPA), acute anti-inflammatory activity. It is filed as in vivo. The following applies: po, read-out: ED50, dose required to reduce the 3 hour exudate volume by 50%. From the text:
Following the procedure described by Vinegar et al., in Proc. Soc. […] There were 5 animals in each drug-treated group and the control group.

A further series concerns 51Cr-labelled EL4 cells. The series can be described thus: Assay of lymphocyte mediated cytolysis (LMC) in vitro. Format: cell-based. The following applies: for % lysis Reduction: in presence of ADA inhibitor EHNA 7.9 µM. Here is the method: The test compounds were assayed in vitro by the method described in Science, (N.Y.), 187, 957 (1975). The order of addition of reagents was (1) cytotoxic lymphocytes; (2) tests compound dissolved in pyrogen-free saline; (3) ^51Cr-labelled EL4 cells. In those experiments where an adenosine deaminase (ADA) inhibitor was required erthro-9-(2-hydroxy-3-nonyl)adenine (EHNA) was added before step (2) to give a final concentration of 7.9 µM.

In series [2] the test system is chromium-labelled heterologous (sheep) erthrocytes target cells coated with mouse anti-sheep erythrocyte serum. The series is described as follows: Antibody-Dependent Cellular Cytotoxicity assay in vitro. Format: cell-based. Here is the method:
The title compound was tested in vitro in Antibody-Dependent Cellular Cytotoxicity assay [Perlmann, P. and Holm, G., Adv. Immunol., 11, 117, (1969)]. Mouse spleen cells from non-immunized animals served as the source of effector cells, assayed with chromium-labelled heterologous (sheep) erthrocytes target cells coated with mouse anti-sheep erythrocyte serum. The final concentration of the anti-serum in the incubation mixture was 1:66, the ratio of effector to target cells 25:1.

Series [3] relates to lipoxgenase or cyclooxygenase pathway. The series is described as follows: Inhibition of prostaglandin metabolism in vitro. It is filed as biochemical.
A short description of series [4]: Antipyretic and analgesic activity. The settings on record: in vivo.
A short description of series [5]: Duration of action and half life. The following applies: in vivo.
Another series in a line: Solubility in water. Format: physicochemical.
Series [6] can be described thus: Toxicity in animal models: liver damage, therapeutic index.
[7] abbreviates: Mus musculus, EL4, read-out: % lysis Reduction.

Structures are written as SMILES. Read-outs that look alike come from different tables or passages of the source.

With `C[C@]12CCC(=O)C=C1CC[C@@H]1[C@@H]2[C@@H](O)C[C@@]2(C)[C@H]1CC[C@]2(O)C(=O)CO` [Hydrocortisone], the ED50 in series [1] (3 h) stood at 14 ± 10.2 mg/kg.
Still for that read-out and setting: the figure for `CC(=O)Oc1ccccc1C(=O)O` [Aspirin] is 28 ± 3.2 mg/kg.
Take `Nc1ncnc2c1ncn2[C@@H]1O[C@H](CO)[C@@H](O)[C@H]1O` [Adenosine]: the “% lysis Reduction” value in the series with 51Cr-labelled EL4 cells (Conc. 9.4 µM) and with 51Cr-labelled EL4 cells (Conc. 18.8 µM) was 59% each time.
As to `Nc1nccc2c1ncn2[C@H]1C[C@H](O)[C@@H](CO)O1` [4-amino-1-(2-deoxy-β-D-ribofuranosyl)-1H-imidazo-[4,5-c]-pyridine], in the series with 51Cr-labelled EL4 cells (Mus musculus, EL4, Conc. 18.8 µM, read-out: % lysis Reduction), the inhibition at 18.8 µM was found to be 53%. Also, the inhibition at 37.5 µM in the series on 51Cr-labelled EL4 cells (Mus musculus, EL4, Conc. 37.5 µM, read-out: % lysis Reduction) worked out at 73%. Further, the “inhibition of lymphocyte mediated cytolysis” value in the series with 51Cr-labelled EL4 cells (summary statement) was “potent inhibitor”. Also, the inhibition at 100 µM in series [2] (100 µM, 4 hours of incubation at 37 °C, effector to target cells 25:1, read-out: inhibition of target cell-specific chromium release) amounted to 83.2%. In series [2] (4 h), this compound yielded an inhibition at 3.1 µM of 31.2%, an inhibition at 6.2 µM of 42.1% and an inhibition at 12.5 µM of 55.9%. This compound had an inhibition at 25 µM in series [2] (4 h, Dose 25.0 μM) of 60.2%. Moreover, the IC50 in series [2] (dose-response study) was in the range of 6.2 to 12.5 µM. Moreover, the ED50 in series [1] (3 hr. vol. p.o., mg/kg of body weight) was determined as 12 mg/kg. The “inhibition of prostaglandin metabolism” value in series [3] is “does not inhibit”. In series [4], the “analgesic activity per se” value is on record as “no analgesic activity” and the antipyretic activity result was “not antipyretic”. Moreover, in series [5], the duration of action result is recorded as “about 15 hours” and the half life entry is recorded as “short”. Moreover, in the series “Solubility in water”, the solubility in water result was “highly soluble in water”. Moreover, the liver damage entry in series [6] (in the animal models used) was “does not cause liver damage”. Moreover, the therapeutic index result in series [6] (in vivo) is recorded as “high”.
As to `C[C@]12C=CC(=O)C=C1CC[C@@H]1[C@@H]2[C@@H](O)C[C@@]2(C)[C@H]1CC[C@]2(O)C(=O)CO` [Prednisolone], the median effective dose (ED50) in series [1] (3 h) stood at 3 ± 0.5 mg/kg.
In series [2] (4 h), `Nc1nccc2c1ncn2[C@@H]1O[C@H](CO)[C@@H](O)[C@H]1O` [(4-amino-1-β-D-ribofur-anosyl-1H-imidazo-[4,5-c]-pyridine, reference compound] had an inhibition at 3.1 µM of 52.3%, an inhibition at 6.2 µM of 64.8% and an inhibition at 12.5 µM of 66.4%.
Take `Nc1nc(Cl)nc2c1ncn2[C@@H]1O[C@H](CO)[C@@H](O)[C@H]1O` [2-Chloro-adenosine]: in the series on 51Cr-labelled EL4 cells (setting [7]), the inhibition at 4.7 µM was found to be 62.2% and the inhibition at 9.4 µM came out at 64.4%.
As to `Nc1nc(F)nc2c1ncn2[C@@H]1O[C@H](CO)[C@@H](O)[C@H]1O` [2-Fluoro-adenosine], in the series with 51Cr-labelled EL4 cells (setting [7]), the inhibition at 1 µM turned out to be 48.9% and the inhibition at 2 µM is 60%.
